Measurements from patent US20090252754A1, “Vaccines containing the hiv tat protein as an adjuvant for the enhancement of cytotoxic t-cell responses” (priority 2003, published 2009).

Key:
HIV-1 Env peptide pools = experiment: Env-specific IFNγ Elispot on splenocytes of immunized mice; assay type: in vivo, BALB/c mice
Description: C57BL/6 mice (H-2^b) (Harlan Nossan, Udine, I) were immunized subcutaneously, in a single site in the back, with 25 μg of ovalbumin (Sigma) alone or in combination with native monomeric biologically active Tat protein (5 and 10 μg, respectively) in Freund's adjuvant (CFA for the first injection, and IFA for subsequent injections). BALB/c mice (H-2^d) (Harlan, Udine, Italy) were immunized subcutaneously, in a single site in the back, with 5 μg of HIV-1 Gag or Env proteins alone or in combination with 5 μg of native monomeric biologically active Tat protein or with the mutant Tatcys22 protein in Freund's adjuvant or in Alum. Each group was composed of 5 animals. Immunogens were given subcutaneously in 100 μl, at days 1, 14 and 28. Mice were sacrificed 10 days after the last boost (day 38). […]
Splenocytes were purified from spleens squeezed on filters (Cell Strainer, 70 μm, Nylon, Becton Dickinson). […] Cellular responses were also measured after in vitro re-stimulation. […]
Elispot (IFN-γ) was carried out using a commercially available kit provided by Becton Dickinson (murine IFNgamma ELISPOT Set; #551083), according to manufacturer's instructions. […] The spots were read using an Elispot reader (Elivis, Germany). The results are expressed as neat number of spot forming units (SFU)/10^6 cells: [mean number SFU of peptide treated wells minus mean number SFU of the negative control]. […]

[1] = system: proteasome subunits (α2, LMP2, LMP7, MECL1) in Jurkat cells; experiment: Western blot of proteasome subunits in Jurkat cells expressing or treated with Tat, Tat mutants or Tat peptides; assay type: cell-based, human; conditions: Jurkat cells treated for 24 h with 0.1 μg/ml
Description: Jurkat T cells expressing Tat or mutated Tat (referred to as Tat22, wherein a Cys at position 22 is mutated) have previously been described (1). Cells were cultured in a medium supplemented with 800 μg/ml neomycin (Sigma, St. Louise, […].).
Cells were lysed with glass beads as previously described (4). Supernatants were ultracentrifuged for 1 h at 100,000 g and loaded into an affinity column containing a matrix derivatised with the MCP21 mAb specific for the α2 subunit of the proteasome (Affinity, Exeter, UK). Proteasomes were eluted with 25 mM Tris-HCl pH 7.5 containing 2 M NaCl, and 0.5 ml fractions were collected. Homogeneity of the eluted material was confirmed by analysis of an aliquot by SDS 12% PAGE and Coomassie blue staining of the gel. Fractions containing proteasomes were combined and dialysed against 25 mM Tris-HCl pH 7.5. Protein concentration was determined using the BCA method (Pierce Chemical, Rockford, Ill.).
Equal amounts of proteins, or equal amounts of purified proteasomes, were loaded on a 12% SDS-PAGE and electro-blotted onto Protran nitrocellulose membranes (Schleicher & Schuell, Keene, Hampshire, USA). Blots were probed with Abs specific for α2, LMP2 LMP7, MECL1, and PA28α subunits (Affinity), and developed by enhanced chemi-luminescence (ECL, Amersham Pharmacia Biotech, Uppsala, SW).

[2] = system: ovalbumin epitopes SII, KVV, CFD on EL4 cells; experiment: Ova-specific CTL responses in vaccinated mice (cytotoxicity against peptide-pulsed EL4 cells); assay type: in vivo, C57BL/6 mice; conditions: fresh splenocytes; 25 μg ovalbumin alone or with 5 and 10 μg Tat, s.c., Freund's adjuvant
Description: Seven- to eight-week old female C57BL/6 mice (H-2^b) (Nossan) were injected with 25 μg ovalbumin (Sigma, St. Louis, Mo.) alone or in combination with native monomeric biologically active Tat protein (5 and 10 μg) and resuspended in degassed sterile PBS in Freund's adjuvant (CFA for the first injection, and IFA for subsequent injections). Control mice were injected with PBS alone in Freund's adjuvant. Samples (100 μl) were given by subcutaneous (s.c.) injection in one site in the back. Each experimental group consisted of five mice, and the experiment was repeated twice. Mice were boosted at day 24. Two weeks after the last injection, animals were anaesthetised i.p., as described above, and sacrificed to collect spleens. Mononuclear cells from individual spleens were purified as described above, pooled and tested in cytotoxic assay against peptide-pulsed EL4 cells.
C57BL/6 mice (H-2^b) (Harlan Nossan, Udine, I) were immunized subcutaneously, in a single site in the back, with 25 μg of ovalbumin (Sigma) alone or in combination with native monomeric biologically active Tat protein (5 and 10 μg, respectively) in Freund's adjuvant (CFA for the first injection, and IFA for subsequent injections). BALB/c mice (H-2^d) (Harlan, Udine, Italy) were immunized subcutaneously, in a single site in the back, with 5 μg of HIV-1 Gag or Env proteins alone or in combination with 5 μg of native monomeric biologically active Tat protein or with the mutant Tatcys22 protein in Freund's adjuvant or in Alum. Each group was composed of 5 animals. Immunogens were given subcutaneously in 100 μl, at days 1, 14 and 28. Mice were sacrificed 10 days after the last boost (day 38). During the course of the experiments, animals were controlled twice a week at the site of injection and for their general conditions (such as liveliness, food intake, vitality, weight, motility, sheen of hair). No signs of local nor systemic adverse reactions were ever observed in mice receiving the immunogens as compared to control or untreated mice. Animal use was according to European and institutional guidelines.

Substance: Env: HIV-1 Env protein (gp120 SF162, SEQ ID NO 267) from NIH AIDS Reagent Program
- response of fresh splenocytes to Env-derived peptide pools (HIV-1 Env peptide pools; fresh splenocytes, IFN-γ Elispot (data not shown)): did not respond
- number of Env-derived peptide pools responded to (HIV-1 Env peptide pools; vaccinated BALB/c mice): 8

Substance: 47-86: peptide of amino acids 47-86 of wild-type Tat (SEQ ID NO 285) (YGRKKRRQRRRPPQGSQTHQVSLSKQPTSQSRGDPTGPKE; Human immunodeficiency virus)
- LMP2 expression in total cell lysates [1]: induced down-regulation

Substance: ovalbumin
- recognition of EL4 target cells pulsed with cryptic CFD epitope [2]: did not recognise
- recognition of EL4 target cells pulsed with immunodominant SII epitope [2]: recognised
- recognition of EL4 target cells pulsed with subdominant KVV epitope [2]: did not recognise

Substance: 1-38: peptide covering amino acids 1-38 of the wild-type sequence of Tat (MEPVDPRLEPWKHPGSQPKTACTNCYCKKCCFHCQVCF; UniProt P04608 1-38, looked up, fragment)
- LMP2 expression in total cell lysates [1]: no discernable effect

Substance: 21-58: peptide covering amino acids 21-58 of the wild-type sequence of Tat (ACTNCYCKKCCFHCQVCFITKALGISYGRKKRRQRRRA; UniProt P04608 21-58, looked up, fragment)
- LMP2 expression in total cell lysates [1]: no discernable effect
